# Where “and” joins values, the source holds several entries; their conditions need not be identical. Equal entries are not always repeated. Where two headings read alike, the source gives them in different places.
# Key:
# K562/Dox cells = assay: SRB cell viability assay, daunorubicin-resistant K562/Dox cells; format: cell-based, human; conditions: 72 h, background = 0.043
# PC3-TxR cells = assay: SRB cell viability assay, docetaxel-resistant PC3-TxR cells; conditions: Homo sapiens
# Protocol: The CE is expressed as: CE=IC50D/IC50E+D. IC50D is the IC50 of the chemotherapeutic drug against which an test extract (or other compound suspected of having a CE) is evaluated. IC50E+D is the IC50 of the combination of the test extract and chemotherapeutic drug. The CE of a test extract or compound can vary depending on the type of cell and the specific chemotherapeutic or class or combination of therapeutics that are being evaluated.
# The variance between those concentrations can be quantitated by calculating the Chemosensitizing Utility Index (CUI) value for a test extract or compound. The CUI is expressed as: CUI=CE×(IC50E/ConE). […] ConE is the concentration of an extract or compound that is required to produce desirable CE.
# CE and CUI values were obtained individually for the aqueous, ethanol, and chloroform extracts that are described above. […] In the Examples, the ethanol, is referred to as Lei Gong Teng extract (LGT-E).
# PC3-TxR cells were plated into sterile, F-bottom Cellstar® 96 well cell culture plates with lids (Cat #655180, Purchased from Greiner Bio-one, Monroe, N.C.) by placing into each well, 100 μl of medium containing 3000 cells in RPMI 1640 supplemented with 10% fetal bovine serum (Thermo Scientific, Logan, Utah) and a solution of penicillin (100 U/ml) and streptomycin (100 μg/ml) (Life Technologies Grand Island, N.Y.). The cells were at passage 52 at the time of plating. Triplicate wells were assigned to each experimental condition tested, and a 24 hour recovery period for the cells following the seeding of the wells was allowed. During the recovery period, the cells were incubated at 37° C. and 5% CO2.
# The LGT-E was prepared by adding an appropriate amount of LGT-E powder to DMSO to form a 500 mg/ml stock solution. The stock solution was alternately vortexed and sonicated until the LGT-E powder went into solution. The stock solution was diluted in RPMI 1640 medium (Mediatech, Manassas, Va., or Life Technologies Grand Island, NY) to reach the desired concentrations of LGT-E (e.g., 12, 25, or 60 μg/ml).
# Pretreatment of the cells with LGT-E was carried out by aspirating the media from the wells, followed by adding 50 μl of LGT-E solution containing concentrations of either 12 or 25 μg/ml of LGT-E solution and incubation of the cells for two hours under conditions of 37° C. and 5% CO2.
# Media was aspirated from each well, and replaced with a 10% solution of cold trichloroacetic acid (TCA) (Cat #: T6399, purchased from Sigma-Aldrich), and incubated for one hour at 4° C. After the TCA incubation, the TCA solution was aspirated, and the cells were washed five times with tap water. After removing the last wash, the plates were left with lids off at room temperature until the surfaces were dry, which took one to two hours. Then 50 μl of a 0.4% solution of sul-forhodamine B (SRB) sodium salt (Cat #: S9012, purchased from Sigma-Aldrich) was added to each well and the plates were incubated at room temperature for 20 to 30 minutes. Afterwards, the wells were washed five times with a 1% acetic acid solution in 10 mM TRIS base (Cat#: 161-0719, purchased from Bio-Rad Laboratories, Hercules, Calif.). The plates were subsequently left to dry for several hours or overnight. SRB that remained in the dried wells was solubilized by adding 100 μl of SRB solubilization solution (10 mM TRIS base) to each well, and placing the plates either on a gently-moving shaker or letting the plates remain stationary at room temperature until the SRB dissolves, which takes about five to ten minutes. The amount of SRB in each well, which correlated directly to the number of living cells at fixation, was determined spectrophotometrically at an absorbance of 565 nm by a microplate reader.
structure (smiles),measurement,setting,value
"CC(=O)O[C@@]12CO[C@@H]1C[C@H](O)[C@@]1(C)C(=O)[C@H](O)C3=C(C)[C@@H](OC(=O)[C@H](O)[C@@H](NC(=O)OC(C)(C)C)c4ccccc4)C[C@@](O)([C@@H](OC(=O)c4ccccc4)[C@H]21)C3(C)C [Docetaxel, docetaxel]",mean A at 565 nm,"K562/Dox cells; Docetaxel 0.001 nM (so in the source), no LGT-E pre-treatment",2.771
same,mean A at 565 nm,"K562/Dox cells; Docetaxel 0.001 nM (so in the source), pre-treated with 25 μg/ml LGT-E",2.747
same,mean A at 565 nm,"K562/Dox cells; Docetaxel 0.1 nM (so in the source), no LGT-E pre-treatment",2.933
same,mean A at 565 nm,"K562/Dox cells; Docetaxel 0.1 nM (so in the source), pre-treated with 25 μg/ml LGT-E",2.848
same,mean A at 565 nm,"K562/Dox cells; Docetaxel 0.333 nM (so in the source), no LGT-E pre-treatment",2.960
same,mean A at 565 nm,"K562/Dox cells; Docetaxel 0.333 nM (so in the source), pre-treated with 25 μg/ml LGT-E",2.811
same,mean A at 565 nm,"K562/Dox cells; Docetaxel 1 nM (so in the source), no LGT-E pre-treatment",2.509
same,mean A at 565 nm,"K562/Dox cells; Docetaxel 1 nM (so in the source), pre-treated with 25 μg/ml LGT-E",2.706
same,mean A at 565 nm,"K562/Dox cells; Docetaxel 3.33 nM (so in the source), no LGT-E pre-treatment",2.848
same,mean A at 565 nm,"K562/Dox cells; Docetaxel 3.33 nM (so in the source), pre-treated with 25 μg/ml LGT-E",2.300
same,mean A at 565 nm,"K562/Dox cells; Docetaxel 10 nM (so in the source), no LGT-E pre-treatment",2.716
same,mean A at 565 nm,"K562/Dox cells; Docetaxel 10 nM (so in the source), pre-treated with 25 μg/ml LGT-E",1.259
same,mean A at 565 nm,"K562/Dox cells; Docetaxel 33.3 nM (so in the source), pre-treated with 25 μg/ml LGT-E",1.175
same,mean A at 565 nm,"K562/Dox cells; Docetaxel 100 nM (so in the source), no LGT-E pre-treatment",0.723
same,mean A at 565 nm,"K562/Dox cells; Docetaxel 100 nM (so in the source), pre-treated with 25 μg/ml LGT-E",0.510
same,viability at 1 pM,"PC3-TxR cells; read-out: % viable, PC3-TxR, LGT-E 12 μg/ml pre-treatment, docetaxel 0.001 nM 72 h",100%
same,viability at 0.0001 µM,"PC3-TxR cells; read-out: % viable, PC3-TxR, LGT-E 12 μg/ml pre-treatment, docetaxel 0.1 nM 72 h",105%
same,viability at 0.000333 µM,"PC3-TxR cells; read-out: % viable, PC3-TxR, LGT-E 12 μg/ml pre-treatment, docetaxel 0.333 nM 72 h",103%
same,viability at 0.001 µM,"PC3-TxR cells; read-out: % viable, PC3-TxR, LGT-E 12 μg/ml pre-treatment, docetaxel 1 nM 72 h",97.8%
same,viability at 0.00333 µM,"PC3-TxR cells; read-out: % viable, PC3-TxR, LGT-E 12 μg/ml pre-treatment, docetaxel 3.33 nM 72 h",62.4%
same,viability at 0.01 µM,"PC3-TxR cells; read-out: % viable, PC3-TxR, LGT-E 12 μg/ml pre-treatment, docetaxel 10 nM 72 h",21.2%
same,viability at 0.0333 µM,"PC3-TxR cells; read-out: % viable, PC3-TxR, LGT-E 12 μg/ml pre-treatment, docetaxel 33.3 nM 72 h",7%
same,viability at 0.1 µM,"PC3-TxR cells; read-out: % viable, PC3-TxR, LGT-E 12 μg/ml pre-treatment, docetaxel 100 nM 72 h",4.1%
same,viability at 1 pM,"PC3-TxR cells; read-out: % viable, PC3-TxR, LGT-E 25 μg/ml pre-treatment, docetaxel 0.001 nM 72 h",100%
same,viability at 0.0001 µM,"PC3-TxR cells; read-out: % viable, PC3-TxR, LGT-E 25 μg/ml pre-treatment, docetaxel 0.1 nM 72 h",99.9%
same,viability at 0.000333 µM,"PC3-TxR cells; read-out: % viable, PC3-TxR, LGT-E 25 μg/ml pre-treatment, docetaxel 0.333 nM 72 h",99.1%
same,viability at 0.001 µM,"PC3-TxR cells; read-out: % viable, PC3-TxR, LGT-E 25 μg/ml pre-treatment, docetaxel 1 nM 72 h",82.5%
same,viability at 0.00333 µM,"PC3-TxR cells; read-out: % viable, PC3-TxR, LGT-E 25 μg/ml pre-treatment, docetaxel 3.33 nM 72 h",34.6%
same,viability at 0.01 µM,"PC3-TxR cells; read-out: % viable, PC3-TxR, LGT-E 25 μg/ml pre-treatment, docetaxel 10 nM 72 h",9.4%
same,viability at 0.0333 µM,"PC3-TxR cells; read-out: % viable, PC3-TxR, LGT-E 25 μg/ml pre-treatment, docetaxel 33.3 nM 72 h",4.9%
same,viability at 0.1 µM,"PC3-TxR cells; read-out: % viable, PC3-TxR, LGT-E 25 μg/ml pre-treatment, docetaxel 100 nM 72 h",4.7%
same,viability at 1 pM,"PC3-TxR cells; read-out: % viable, PC3-TxR, no LGT-E pre-treatment (Table 2), docetaxel 0.001 nM 72 h",100%
same,viability at 0.0001 µM,"PC3-TxR cells; read-out: % viable, PC3-TxR, no LGT-E pre-treatment (Table 2), docetaxel 0.1 nM 72 h",98.5%
same,viability at 0.000333 µM,"PC3-TxR cells; read-out: % viable, PC3-TxR, no LGT-E pre-treatment (Table 2), docetaxel 0.333 nM 72 h",100%
same,viability at 0.001 µM,"PC3-TxR cells; read-out: % viable, PC3-TxR, no LGT-E pre-treatment (Table 2), docetaxel 1 nM 72 h",105%
same,viability at 0.01 µM,"PC3-TxR cells; read-out: % viable, PC3-TxR, no LGT-E pre-treatment (Table 2), docetaxel 10 nM 72 h",77%
same,viability at 0.0333 µM,"PC3-TxR cells; read-out: % viable, PC3-TxR, no LGT-E pre-treatment (Table 2), docetaxel 33.3 nM 72 h",29.7%
same,viability at 0.1 µM,"PC3-TxR cells; read-out: % viable, PC3-TxR, no LGT-E pre-treatment (Table 2), docetaxel 100 nM 72 h",11.3%
same,viability at 1 pM,"PC3-TxR cells; read-out: % viable, PC3-TxR, no LGT-E pre-treatment (Table 4), docetaxel 0.001 nM 72 h",100%
same,viability at 0.0001 µM,"PC3-TxR cells; read-out: % viable, PC3-TxR, no LGT-E pre-treatment (Table 4), docetaxel 0.1 nM 72 h",98.7%
same,viability at 0.000333 µM,"PC3-TxR cells; read-out: % viable, PC3-TxR, no LGT-E pre-treatment (Table 4), docetaxel 0.333 nM 72 h",99.9%
same,viability at 0.001 µM,"PC3-TxR cells; read-out: % viable, PC3-TxR, no LGT-E pre-treatment (Table 4), docetaxel 1 nM 72 h",99.2%
same,viability at 0.00333 µM,"PC3-TxR cells; read-out: % viable, PC3-TxR, no LGT-E pre-treatment (Table 4), docetaxel 3.33 nM 72 h",98.5%
same,viability at 0.01 µM,"PC3-TxR cells; read-out: % viable, PC3-TxR, no LGT-E pre-treatment (Table 4), docetaxel 10 nM 72 h",76.7%
same,viability at 0.0333 µM,"PC3-TxR cells; read-out: % viable, PC3-TxR, no LGT-E pre-treatment (Table 4), docetaxel 33.3 nM 72 h",32.9%
same,viability at 0.1 µM,"PC3-TxR cells; read-out: % viable, PC3-TxR, no LGT-E pre-treatment (Table 4), docetaxel 100 nM 72 h",13.4%
same,viability at 1 pM,"PC3-TxR cells; read-out: % viable, PC3-TxR, no LGT-E pre-treatment (Table 11, Example 4), docetaxel 0.001 nM 72 h",100%
same,viability at 0.0001 µM,"PC3-TxR cells; read-out: % viable, PC3-TxR, no LGT-E pre-treatment (Table 11, Example 4), docetaxel 0.1 nM 72 h",98.7%
same,viability at 0.000333 µM,"PC3-TxR cells; read-out: % viable, PC3-TxR, no LGT-E pre-treatment (Table 11, Example 4), docetaxel 0.333 nM 72 h",99.9%
same,viability at 0.001 µM,"PC3-TxR cells; read-out: % viable, PC3-TxR, no LGT-E pre-treatment (Table 11, Example 4), docetaxel 1 nM 72 h",99.2%
same,viability at 0.00333 µM,"PC3-TxR cells; read-out: % viable, PC3-TxR, no LGT-E pre-treatment (Table 11, Example 4), docetaxel 3.33 nM 72 h",98.5%
same,viability at 0.01 µM,"PC3-TxR cells; read-out: % viable, PC3-TxR, no LGT-E pre-treatment (Table 11, Example 4), docetaxel 10 nM 72 h",76.7%
same,viability at 0.0333 µM,"PC3-TxR cells; read-out: % viable, PC3-TxR, no LGT-E pre-treatment (Table 11, Example 4), docetaxel 33.3 nM 72 h",32.9%
same,viability at 0.1 µM,"PC3-TxR cells; read-out: % viable, PC3-TxR, no LGT-E pre-treatment (Table 11, Example 4), docetaxel 100 nM 72 h",13.4%
same,IC50,"PC3-TxR cells; read-out: IC50 of drug when cells pre-treated with Chemosensitizing Agent before drug treatment, docetaxel, LGT-E 25 μg/ml pre-treatment",2.19 nM and 0.00177 µg/mL
same,IC50,"PC3-TxR cells; read-out: IC50 of drug when cells treated with drug only, docetaxel, line of LGT-E 25 μg/ml",18.3 nM and 0.0148 µg/mL

# — patent US10149876B2, “Tripterygium wilfordii extracts to overcome chemotherapy resistance” (WESTERN UNIVERSITY OF HEALTH SCIENCES, priority 2012, dated 2018)
